Experimental data reported in patent US20210139477A1, “ALK5 INHIBITORS, CONJUGATES, AND USES THEREOF” (Silverback Therapeutics, Inc., priority 2019, published 2021).

Molecular target: T1, ALK5 (Homo sapiens, UniProt P36897)
T1 construct: purchased Reaction Biology Corp (Malvern, Pa.)
T1 sequence (P36897 34-503): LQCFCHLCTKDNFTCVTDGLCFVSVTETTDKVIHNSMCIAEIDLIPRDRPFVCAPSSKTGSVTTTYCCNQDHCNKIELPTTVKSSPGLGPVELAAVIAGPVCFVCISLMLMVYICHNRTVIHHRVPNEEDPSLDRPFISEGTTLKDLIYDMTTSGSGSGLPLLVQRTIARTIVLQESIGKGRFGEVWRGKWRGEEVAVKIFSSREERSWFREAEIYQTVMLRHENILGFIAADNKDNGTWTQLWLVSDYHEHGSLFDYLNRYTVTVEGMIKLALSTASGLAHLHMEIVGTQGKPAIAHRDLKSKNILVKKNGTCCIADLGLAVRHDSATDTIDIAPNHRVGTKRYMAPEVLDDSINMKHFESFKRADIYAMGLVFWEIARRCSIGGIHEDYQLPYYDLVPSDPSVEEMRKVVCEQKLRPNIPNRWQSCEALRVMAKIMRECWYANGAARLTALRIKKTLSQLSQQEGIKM
Assay: ALK5 enzyme inhibition assay (Reaction Biology Corp, 33P-ATP filter-binding, casein substrate)
Format: biochemical
Conditions: 10 uM ATP, 2 hours at room temperature
Procedure: ALK5 enzyme inhibition assays were performed by Reaction Biology Corp (Malvern, Pa.). 1 mg/mL of peptide substrate (casein) and 10 uM ATP were prepared in a mixture of fresh reaction buffer. The kinase was delivered into the substrate solution which was gently mixed. Compounds in 100% DMSO were added to the kinase reaction mixture by Acoustic technology (Echo550; nanoliter range) and the mixture was incubated for 20 min at room temperature. ^33P-ATP (Specific activity 10 uCi/uL) was added into the reaction mixture to initiate the reaction and the reaction mixture was incubated for 2 hours at room temperature. Radioactivity was detected by filter-binding method and kinase activity data were expressed as the percent remaining kinase activity in test samples compared to vehicle (dimethyl sulfoxide) reactions. IC50 values and curve fits were obtained using Prism (GraphPad Software).

First: Cc1cccc(-c2nc(CN[C@@H](C)c3ccccc3)[nH]c2-c2ccc3ncnn3c2)n1 [Compound 12]
Second: COC(=O)[C@@H](NCc1nc(-c2cccc(C)n2)c(-c2ccc3ncnn3c2)[nH]1)c1ccccc1 [Compound 16]
The IC50 of the first is higher: 1000 to 10000 nM for the first, 0.1 to 50 nM for the second. The second is the more potent here.

System: TGFb/SMAD Signaling Pathway SBE reporter cell line
Assay: TGFb reporter assay (TGFb/SMAD Signaling Pathway SBE luciferase reporter cell line)
Format: cell-based
Conditions: 5-6 h preincubation, then TGFb, 18 h, luciferase luminescence
Procedure: TGFβ/SMAD Signaling Pathway SBE reporter cell line was obtained from BPS Bioscience. Cells were passed, expanded, and stored in liquid nitrogen as per the supplier's instructions with the exception that growth media is changed to DMEM-C with Geneticin (DMEM supplemented with 10% fetal bovine serum, 1×NEAA, 1 mM Pyruvate, 2 mM glutamine, 50 μg/mL penicillin, 50 U/mL streptomycin and 400 μg/mL of Geneticin). The assay media was MEM supplemented with 0.5% fetal bovine serum, 1×NEAA, 1 mM Pyruvate, 50 μg/mL penicillin and 50 U/mL streptomycin.
TGFb/SMAD Signaling Pathway SBE reporter cell line was obtained from BPS Bioscience. Cells were passed/expanded/stored in liquid nitrogen per supplier's instruction with the exception that growth media was changed to DMEM-C with Geneticin (DMEM supplemented with 10% fetal bovine serum, IX NEAA, 1 mM Pyruvate, 2 mM glutamine, 50 μg/mL penicillin, 50 U/mL streptomycin and 400 ug/mL of Geneticin). The assay media was MEM supplemented with 0.5% fetal bovine serum, IX NEAA, 1 mM Pyruvate, 50 μg/mL penicillin and 50 U/mL streptomycin.
Reporter cells were harvested from the tissue culture flasks by incubation in small quantity of Versene at room temperature for three to five minutes after the media in the flask was removed and cells rinsed with PBS. Cells were counted and diluted in the assay media at 0.8×10^6 cells/mL then 50 uL/well were added to 96-well assay plate. Test samples (at desired concentrations diluted in assay media) were added to assay plate containing the 50 uL/well of cells (or media only), 50 uL per well, and incubated for 5-6 hours at 37° C. in a 5% CO2 humidified incubator. After that time, 15 uL of TGFb diluted to 12.5 ng/mL in the assay media was added to the plate. Controls included TGFb titration (from 25 to 0 ng/mL) without inhibitors, and media only (without cells, inhibitor or TGFb). Plates were incubated at 37° C. in a […] humidified incubator for 18 h. Luciferase substrate solution was subsequently added at 75 uL per well, incubated in dark with shaking at room temperature for 10 min, and luminescence was measured using a luminometer.

Cc1cccc(-c2nc(CN[C@@H](C)c3ccccc3)[nH]c2-c2ccc3ncnn3c2)n1 [Compound 12] and COC(=O)[C@@H](NCc1nc(-c2cccc(C)n2)c(-c2ccc3ncnn3c2)[nH]1)c1ccccc1 [Compound 16] fall in the same range of EC50: 100 to 1000 nM for the first, 100 to 1000 nM for the second.

Cc1cccc(-c2nc(CNCc3cccc(-c4ccccc4)c3C)[nH]c2-c2ccc3ncnn3c2)n1 [Compound 49] and Cc1cccc(-c2nc(CNCc3ccccc3-c3ccccn3)[nH]c2-c2ccc3ncnn3c2)n1 [Compound 40] fall in the same range of EC50: 10 to 100 nM for the first, 10 to 100 nM for the second.

Cc1cccc(-c2nc(CNCc3ccccc3C)[nH]c2-c2ccc3ncccc3n2)n1 [Compound 83] and Cc1cccc(-c2nc(CNCc3ccccc3C)[nH]c2-c2ccc3nccnc3c2)n1 [Compound 86] fall in the same range of EC50: 0.1 to 10 nM for the first, 0.1 to 10 nM for the second.

Compared with Cc1cccc(-c2nc(CNCc3c(Cl)cccc3Cl)[nH]c2-c2ccc3ncnn3c2)n1 [Compound 6], Cc1cccc(CNCc2nc(-c3cccc(C)n3)c(-c3ccc4ncnn4c3)[nH]2)c1 [Compound 50] is higher in EC50: 0.1 to 10 nM for the first, 10 to 100 nM for the second.

Cc1cccc(-c2nc(CNCCc3ccc(F)cc3F)[nH]c2-c2ccc3ncnn3c2)n1 [Compound 63] and Cc1cccc(-c2nc(CNCCc3cccc(F)c3)[nH]c2-c2ccc3ncnn3c2)n1 [Compound 61] fall in the same range of EC50: 0.1 to 10 nM for the first, 0.1 to 10 nM for the second.

Cc1cccc(-c2nc(CNCc3ccccc3Oc3cccnc3)[nH]c2-c2ccc3ncnn3c2)n1 [Compound 54] and Cc1cccc(-c2nc(CNCc3ccccc3OC(F)(F)F)[nH]c2-c2ccc3ncnn3c2)n1 [Compound 26] fall in the same range of EC50: 0.1 to 10 nM for the first, 0.1 to 10 nM for the second.

First: Cc1cccc(-c2nc(CNCc3ccccc3-c3ccccc3CN)[nH]c2-c2ccc3ncnn3c2)n1 [Compound 32]
Second: Cc1cccc(-c2nc(CNCc3ccccc3-c3ccc(F)c(F)c3)[nH]c2-c2ccc3ncnn3c2)n1 [Compound 36]
The EC50 of the first is higher: 100 to 1000 nM for the first, 10 to 100 nM for the second.

COc1cccc(CNCc2nc(-c3cccc(C)n3)c(-c3ccc4ncnn4c3)[nH]2)c1 [Compound 7] and Cc1cccc(-c2nc(CNCCc3ccccc3)[nH]c2-c2ccc3ncnn3c2)n1 [Compound 52] fall in the same range of EC50: 0.1 to 10 nM for the first, 0.1 to 10 nM for the second.

Cc1cccc(-c2nc(CNCCc3c(F)cccc3F)[nH]c2-c2ccc3ncccc3n2)n1 [Compound 78] and Cc1cccc(-c2nc(CNCCc3c(F)cccc3F)[nH]c2-c2ccc3nccnc3c2)n1 [Compound 82] fall in the same range of EC50: 0.1 to 10 nM for the first, 0.1 to 10 nM for the second.

Cc1cccc(-c2nc(CNCCN(C)c3ccccc3)[nH]c2-c2ccc3nccnc3c2)n1 [Compound 88] and Cc1cccc(-c2nc(CNCCOc3ccccc3)[nH]c2-c2ccc3ncnn3c2)n1 [Compound 65] fall in the same range of EC50: 0.1 to 10 nM for the first, 0.1 to 10 nM for the second.
